Like-named read-outs stand apart in the source and are kept apart here.

The conditions of data set [1]: rabbit, in vivo; cited from earlier work.
A short description of another data set: in vivo. Particulars: for tvK12 (distribution rate constant) / tvK21 (distribution rate constant) / tvVc (volume of the central compartment) / tvKabs (rate constant of absorption): population primary parameter, typical value; for tvKabs (rate constant of absorption): MEHP after oral DEHP; for Volume(s) of the peripheral compartment: for PFOA first peripheral compartment. The text has this: A nonlinear mixed effect (NLME) modeling approach was used to analyze simultaneously all data obtained from the different rabbits after both IV and oral administrations and to provide robust estimates of the typical TK parameters.
The primary parameters of the model, namely the volume of distribution of the central compartment (V1), the first-order rate constants ( K10 , K12 , K21 , and Kabs plus K13 , K31 for PFOA) and the bioavailability (F) and their associated precisions [standard error (SE)] were estimated by minimizing an objective function value (OFV) expressed as minus twice the log of the likelihood estimation ( −2LL ). […] Marginal likelihood was approximated by using the Laplacian engine by default and, when this engine was unable to determine the SE of the estimate, the Quasi-Random Parametric Expectation Maximization (QRPEM) was selected.
Between subject variability (BSV) of the parameters was measured using the exponential model θparameter_i=θtv_parameter×exp (ηi), where θparameter_i is the parameter estimated for the ith individual, θtv_parameter is the typical population value of the parameter, and ηi is the deviation associated with the ith individual from the corresponding value of the parameter at the population level.
The distribution of ηi was assumed to be normal with a mean of 0 and a variance ω² . BSV was reported as a coefficient of variation (CV) in the original scale CV(%)=100× exp (ω^2)−1 .
The residual variance was modeled using a combined additive and proportional error model Cobsij=Cpredij(1 + ε1ij) + ε2ij, where Cobsij and Cpredij are respectively the jth observed and predicted concentrations for the ith individual, and ε1ij and ε2ij are the multiplicative and additive residual errors.
Secondary parameters were calculated from the population primary parameters.
The clearance values (CL) were estimated using Equation 5: (5) CL=K10×V1, where V1 is the volume of the central compartment and K10 is the elimination rate constant from the central compartment.
The volume of the peripheral compartment (V2) was estimated with Equation 6: (6) V2=V1×(K12/K21), where K12 and K21 are the distribution rate constants between the central and the peripheral compartments.
The clearance of distribution (Q) was estimated using Equation 7: (7) Q=K12×V1, with […] and K12 as defined above.
The volume of distribution associated with the terminal phase was estimated with Equation 10: (10) VZ=CL/λZ, with λZ as defined above.
The AUC was computed as a secondary parameter using Equation 11: (11) AUC=Dose/CL.
The terminal half-life was estimated with Equation 1, as previously described.

Data set [2] is described as follows: Estimation of loading and daily maintenance doses and NLME model simulations. Details: species or system female rabbits. Particulars: oral. As to the method:
The ultimate goal of this TK investigation was to compute a dosage regimen that allowed targeted steady-state serum concentrations to be attained rapidly for a planned TK/TD trial on the reprotoxic effect of a mixture of environmental contaminants in female rabbits. […] With that in mind, the loading and the daily maintenance doses of each compound were evaluated using Equations 12 and 13, respectively.
This risk was also the reason why the NLME model was employed to simulate the time development of the amounts of compounds in the central and peripheral compartments following administration of the daily maintenance dose of each compound over the same duration.
The loading and maintenance doses computed to ensure a nominal CSS of 1 ng/mL were scaled to determine the doses to be administrated by oral route to female rabbits to maintain the targeted CSS .

For data set [3] the following is noted: rodents; ref Kudo and Kawashima 2003; cited from earlier work.
Setting [4] is: female, New Zealand white (INRA 1777 line), rabbit, in vivo.
Setting [5] is: female, New Zealand white, rabbit, in vivo.
The mark [6] stands for this setting: female, New Zealand white, rabbit, in vivo, iv.
The mark [7] stands for this setting: female, New Zealand white, rabbit, in vivo, po.
[8] abbreviates: population secondary parameter, mean.

For orientation: half-life means the time needed for the level to fall by half in the phase considered. Take `Clc1c(Cl)c(Cl)c(Cl)c(Cl)c1Cl` [HCB, hexachlorobenzene]: in data set [1], the half-life is 32 days. Also, in “in vivo” (setting [4]), the VSS fell in the range of 33 to 45 L/kg, the Vd amounted to 35 L/kg and the k el was 9.74e-07 s⁻¹. Further, the “tvf (ilogit of the oral bioavailability)” value in “in vivo” (female, New Zealand white (INRA 1777 line), rabbit, in vivo, po) worked out at 0.03625. The bioavailability in the data set “in vivo” (female, New Zealand white (INRA 1777 line), rabbit, in vivo, po, Oral bioavailability (F)) is approximately 50%. In the data set “in vivo” (setting [5]), the Clearance was 0.83 to 5.67 mL/min/kg, the “Clearance(s) of distribution” value was 13 mL/min/kg, the clearance was 0.85 mL/min/kg and the half-life is 20 days. Also, in “in vivo” (female, New Zealand white, rabbit, in vivo, MRT), the MRT was more than 33.3 days. This molecule yielded an AUC in the data set “in vivo” (setting [6]) of 4.5 µM·h. Besides, the AUC in the data set “in vivo” (setting [7]) worked out at 271 µM·h. In addition, the bioavailability in the data set “in vivo” (female, New Zealand white, rabbit, in vivo, po, Bioavailability) came out at 51%. In addition, in the data set “in vivo” (mean), the “tvK12 (distribution rate constant)” value was found to be 0.05299 h⁻¹, the “tvK21 (distribution rate constant)” value turned out to be 0.03851 h⁻¹, the “tvVc (volume of the central compartment)” value stood at 14.63 L/kg and the “tvKabs (rate constant of absorption)” value turned out to be 0.3488 h⁻¹. In addition, the “Volume(s) of the peripheral compartment” value in the data set “in vivo” (setting [8]) is 20 L/kg.

`O=C(O)C(F)(F)C(F)(F)C(F)(F)C(F)(F)C(F)(F)C(F)(F)C(F)(F)F` [PFOA, perfluorooctanoic acid]: the Computed maintenance dose in data set [2] (daily, scaled to the targeted CSS of Table 6) is 9.5 µg/kg. Moreover, the Computed loading dose in data set [2] (scaled to the targeted CSS of Table 6) was 10 µg/kg. Moreover, the Daily maintenance dose in data set [2] (to maintain serum concentration of 1 ng/mL, daily CL×Css/F, DEHP dose for MEHP in serum) is 0.18 µg/kg. The Loading dose in data set [2] (to rapidly attain serum concentration of 1 ng/mL, Vss×Css/F, DEHP dose for MEHP in serum) was 0.19 µg/kg. Further, in “in vivo” (PFOA 3-compartments model), the “tvK13 (distribution rate constant)” value was determined as 0.0039 h⁻¹ and the “tvK31 (distribution rate constant)” value came out at 0.0080 h⁻¹. Also, the “Volume(s) of the peripheral compartment, second value” in the data set “in vivo” (PFOA three-compartment model, second peripheral compartment) is 0.049 L/kg. Also, in “in vivo” (setting [4]), the Vd amounted to 0.19 L/kg and the k el is 2.08e-05 s⁻¹. The molecule also displayed a bioavailability in “in vivo” (female, New Zealand white (INRA 1777 line), rabbit, in vivo, po, Oral bioavailability (F), NLME model) of 100%. In the data set “in vivo” (setting [5]), this molecule showed an MRT of 1.04 days and a half-life of 3.83 days. Moreover, the clearance in the data set “in vivo” (female, New Zealand white, rabbit, in vivo, Clearance, population secondary parameter, mean) is less than 0.167 mL/min/kg. The molecule also gave an AUC in “in vivo” (setting [6]) of 26 µM·h. The molecule further displayed an AUC in “in vivo” (setting [7]) of 128 µM·h. For the same molecule, the bioavailability in the data set “in vivo” (female, New Zealand white, rabbit, in vivo, po, Bioavailability, population secondary parameter, mean, as fraction) amounted to 100%. Besides, in “in vivo” (oral dosing), the AUCVO/dose came to 133 μmol×h/L per μmol/kg BW. In addition, in the data set “in vivo” (mean), the “tvK12 (distribution rate constant)” value worked out at 0.047 h⁻¹, the “tvK21 (distribution rate constant)” value came to 0.127 h⁻¹, the “tvVc (volume of the central compartment)” value was 0.101 L/kg and the “tvKabs (rate constant of absorption)” value was 1.408 h⁻¹. In the data set “in vivo” (setting [8]), the “Volume(s) of the peripheral compartment” value is listed as 0.037 L/kg. Besides, the Intestinal absorption in data set [3] is listed as 93%.

Source of the values: PMC8597046, “Use of Mixture Dosing and Nonlinear Mixed Effect Modeling of Eight Environmental Contaminants in Rabbits to Improve Extrapolation Value of Toxicokinetic Data” (Environmental Health Perspectives, 2021).
